Laboratory results published in patent US5624894A, “Brain-enhanced delivery of neuroactive peptides by sequential metabolism” (University of Florida, priority 1995, dated 1997).
“And” between values parts separate entries of the source, which are not always exact repeats. Equal values may be shown once. Square brackets hold non-standard residues; d marks the D form. Ends that are not written are not given here. Peptide text beside a SMILES is read from it. * marks the point of attachment. pGlu = O=C1CC[C@@H](C(=O)O)N1; X1 = C[n+]1cccc(C(=O)*)c1

Columns and labels:
[1] = Stability and water solubility observed during synthesis; assay type: physicochemical; settings: reaction work-up
Protocol: In all cases before the N-alkylation step, the intermediates were purified by chromatography. In order to avoid side reactions, the N-methylations were performed at room temperature (20°-25° C.) with a slight excess of alkylating agent. The reductions with sodium dithionite were accomplished by cooling at 0°-5° C. in oxygen-free conditions at a pH of approximately 7. The quaternary salts are fairly stable when isolated, but the dihydropyridine derivatives are easily oxidized or hydroxylated and in acid conditions react readily with water.
Trigonellyl-Ala-Tyr-Arg-cholesteryl ester methylsulfate (0.09 g, […]) (30) was dissolved in 20 ml of H2 O, then NaHCO3 (0.05 g, […]) and Na2 S2 O4 (0.07 g, 0.04 mmol) were added in small portions while stirring at 0° C. The reaction vessel was stoppered under nitrogen and allowed to stir for 1.5 hours at 0° C. […] The extraction was repeated 3 times, the organic layers were combined and the solvent was removed in vacuo, to afford 0.056 g of compound (31), yield 62.2%.

[2] = tested on: opioid ([^3 H]diprenorphine-based competitive assay); experiment: [3H]diprenorphine-based competitive assay; assay type: binding; settings: read-out: 50 percent inhibitory concentration (IC50)
From the text: The test procedure is described hereinbelow following the EXAMPLES, and the results are shown in Tables 5-8 and FIGS. 3-5 for (A) where [SEQ. ID NO. 27] YAGFL is [D-Ala^2 ]-[D-Leu]-enkephalin; i.e., Compound (64) in the EXAMPLES. The targetor-peptide conjugates (C), such as compound (70), are weak opioids. The 50 percent inhibitory concentration (IC50) measured with [^3 H]diprenorphine-based competitive assay is about 10^-7 M, an order of magnitude less than the IC50 of about 10^-8 M for the enkephalin analogs. At the measured 500 to 700 pmol/g tissue concentration, even these weak opioids exert significant analgesic activity. The enkephalin analog may also be released slowly from the targetor-peptide conjugate in vivo, and contribute to the CNS activity. No analgesia was observed after the intravenous administration of the unmanipulated enkephalins, which are membrane-impermeable and unprotected toward various peptide-degrading enzymes, nor after the injection of the partially conjugated (either with the targetor or with cholesteryl) peptides. Modification of the spacer (S) function may allow for the peptidolytic release of the parent peptide from the conjugate at a desired rate, depending on the therapeutic objective.

[3] = tested on: Swiss Webster mice; experiment: Methohexital (barbiturate)-induced sleeping time in mice after i.v. injection; assay type: in vivo; settings: for methohexital induced sleeping time, individual animals / methohexital induced sleeping time, mean: methohexital 90 mg/kg i.p. 10 min later
From the text: Two representative chemical delivery systems (CDS's) of the invention for the TRH analog [Leu^2 ]-TRH, i.e., compound (8) of Scheme I/EXAMPLE 8, which has an alanine spacer, and compound (12) of Scheme II/Example 12, which has an alanine-alanine spacer, were studied for their effects on the barbiturate-induced sleeping time in mice. TRH is known to antagonize the reduction in cholinergic activity induced by barbiturates. Thus, the activational effects of the CDS's for TRH analogs on cholinergic neurons can be measured by quantitating the antagonism of pentobarbital-induced sleeping and barbiturate-induced reduction in cholinergic neuronal activity.
Swiss Webster mice weighing 30±2 g were used. The compounds were dissolved in a vehicle consisting of DMSO, ethanol and 50% (w/w) 2-hydroxypropyl-β-cyclodextrin at a ratio of 1:2:1 (15 mg/ml). CDS's at a dose of 30 mg/kg were injected in the animals through the tail vein. Vehicle only and an equimolar dose of TRH and [Leu^2 ]-TRH, 10 mg/kg, were also administered to compare CNS activities. Ten minutes after i.v. injection of the compound, each animal received an intraperitoneal injection of sodium methohexital solution (45 mg/ml) at a dose of 90 mg/kg. The sleeping time was recorded as the time elapsed from the onset of loss of the […] until the reflex was regained. Each compound and the vehicle control were tested on 5-11 animals. The statistical analysis was performed using the Student's t test.

[4] = Detection of peptide conjugates in rat brain tissue and blood by electrospray ionization MS after i.v. compound (A); assay type: in vivo; settings: 15 minutes after i.v. compound (A) for [D-Ala2]-Leu-enkephalin, 20 mg/kg, rats; estimated
From the text: This approach has been evaluated by using electrospray ionization mass spectrometry, which provides the specificity necessary to monitor the biotransformation processes that occur after delivery. In vivo distribution studies with rats as experimental models (described in detail below) have shown that, upon systemic administration, the modified peptide can partition by passive, nonsaturable transport into the brain which is inaccessible to the unmanipulated compound. At this first step, the modified peptide simply enters the brain because of its lipoidal nature. The targetor moiety, however, undergoes an enzyme-mediated oxidation analogous to the endogenous NAD(P)H.revreaction.NAD(P)^+ coenzyme associated with numerous oxidoreductases and cellular respiration. […]
Detection of the peptide conjugates in the brain tissue by electrospray ionization mass spectrometry was carried out after systemic administration of compound (A). […] The solvent was removed under a dry nitrogen stream, and the reconstituted (in 50% methanol plus 50% water containing 3% acetic acid) sample was analyzed by electrospray ionization mass spectrometry at 5 μl/minute flow rate. […] Quantification was based on comparing the peak intensity to that obtained from the brain sample of an untreated animal spiked with a known amount of compound (C).

[5] = tested on: brain peptidases (rat brain homogenate); experiment: Incubation of targetor-peptide conjugate in rat brain homogenate; assay type: in vitro ADME; settings: 30 nmol in 1 ml 20% rat brain homogenate, pH 7.4 Tris, 37° C., 0.5 and 2 hours
Protocol: Compound (C) (30 nmol) was added to one ml rat brain homogenate (20%, w/w, in pH 7.4 Tris buffer), and the mixture was incubated at 37° C. Aliquots (250 t l) were removed 0.5 and 2 hours after incubation, and electrospray ionization mass spectra were obtained after sample preparation identical to that described above. Proteolytic cleavages are identified by the m/z of the products, and the corresponding structures are shown in the Scheme.

[6] = ACTH4-9 analog, behavioral effects; cited from earlier work
[7] = Table 1 experiment, 10 mg/kg i.v. (equimolar), mice
[8] = Table 2 experiment, 10 mg/kg i.v., mice

In the case of `CC(C)CCC[C@@H](C)[C@H]1CC[C@H]2[C@@H]3CC=C4C[C@@H](OC(=O)[C@H](CCCNC(=N)N)NC(=O)[C@H](Cc5ccc(O)cc5)NC(=O)[C@H](C)NC(=O)C5=CN(C)C=CC5)CC[C@]4(C)[C@H]3CC[C@]12C` [(31), 1,4-Dihydrotrigonellyl-Ala-Tyr-Arg-Cholesteryl Ester], the “solubility in water (in words)” value [1] is reported as “not soluble in water”.
With `CC(C)C[C@@H](NC(=O)[C@H](Cc1ccccc1)NC(=O)CNC(=O)[C@@H](C)NC(=O)[C@H](Cc1ccc(O)cc1)NC(=O)[C@H](C)NC(=O)c1ccc[n+](C)c1)C(=O)O` [(70), Trigonellyl-Ala-Tyr-D-Ala-Gly-Phe-D-Leu-OH Methylsulfate] (X1-AY[dA]GF[dL]-OH) the IC50 [2] was roughly 100 nM.
With `CC(C)C[C@H](NC(=O)[C@@H]1CCC(=O)N1)C(=O)N1CCC[C@H]1C(N)=O` [[Leu^2]-TRH, PyroGlu-Leu-Pro-NH2] ([pGlu]-Leu-Pro-NH2) the “methohexital induced sleeping time, individual animals” value [3, 7] was 33.95 min and 37.37 min and 28.22 min and 15.03 min and 33.63 min and 20.90 min and 27.97 min and 36.80 min, the “methohexital induced sleeping time, mean” value [3, 7] was 29.23 min and the “methohexital induced sleeping time, individual animals” value [3, 8] was 15.18 min and 11.95 min and 12.47 min and 11.17 min and 8.53 min and 8.02 min. The “methohexital induced sleeping time, mean” value [3, 8] was 11.22 min, the “effect on barbiturate-induced sleeping time (in words)” value ([3]; first experiment (Table 1), compared to control or [Leu2]-TRH) was “no significant difference between the control and [Leu^2 ]-TRH” and the “behavior / symptoms of animals after i.v. administration” value ([3]; mice, i.v.) was “a few animals (1-2) showed the same symptoms as in the case of TRH”. The “effect on sleeping time (in words)” value ([3]; second experiment (Table 2), compared to TRH or vehicle control) was “significantly reduced”.
With “Compound (C): locked-in targetor-peptide conjugate (m/z 760) of [D-Ala2]-Leu-enkephalin, formed from compound (B) by cleavage of the cholesteryl ester ({N‑methylnicotinoyl}-AY[dA]GFL; not fully specified)” the “level in brain tissue” value [4] was 500-700 picomole/g tissue and the “processing in rat brain homogenate (in words)” value [5] was “processed by the brain peptidases similarly to the unmanipulated compound”.
For “Org 2766: very active ACTH4-9 analog with oxidized methionine at 4, D-lysine at 8, phenylalanine at 9 (MEHF[dK]F; not fully specified (residue 1); printed as Met Glu His Phe Lys Phe)”, the potentiation [6] is listed as 1000 fold.
